According to paper PMC7795354, “Development of Radiogallium-Labeled Peptides for Platelet-Derived Growth Factor Receptor β (PDGFRβ) Imaging: Influence of Different Linkers” (Molecules, 2020):
“And” between values parts separate entries of the source, which are not always exact repeats. Equal entries are not always repeated. Where two headings read alike, the source gives them in different places. Where a SMILES comes first, the peptide text is derived from it. The star is where a group is joined. DOTA = O=C(O)CN1CCN(CC(=O)O)CCN(CC(=O)*)CCN(CC(=O)O)CC1; AEEA = NCCOCCOCC(=O)O

Legend:
[1] = Octanol-water partition coefficient (log P), shake-flask; conditions: n-octanol/PBS, pH 7.4
Method: The octanol-water partition coefficients for radiotracers were determined via the assessment of their distribution in n-octanol and PBS (pH 7.4) using shake-flask method as described previously [48]. Radioactivity of each layer was measured using auto well gamma counter (n = 4).

[2] = In vitro stability in PBS pH 7.4; conditions: 37 °C, 0.1 M PBS pH 7.4
Method: (§3) Briefly, the solution of radiotracers (37 kBq/well, 50 µL) in a sealed tube containing 0.1 M PBS pH 7.4 (450 µL) was incubated at 37 °C for 24 h. At 3 and 24 h after incubation, the purity of radiotracers was analyzed by RP-HPLC. Meanwhile, for stability assay in murine plasma, radiotracers were mixed in murine plasma at a ratio of 1:10. After incubation at 37 °C for 10 min and 1 h, an equivalent amount of ice-cold acetonitrile was added. After centrifugation at 1000× g at 4 °C for 10 min, the supernatant was filtered through a 0.45-µm filter followed by analyzing using RP-HPLC as described above. Then, the radiochemical purities were determined.

[3] = In vitro stability in murine plasma; conditions: 37 °C
Method: as §3

[4] = Biodistribution in BxPC3-luc tumor-bearing mice; assay type: in vivo; conditions: female, BALB/c nu/nu, mouse, stomach, iv, 74 kBq, total radioactivity; 1 h post-injection
[5] = Biodistribution in BxPC3-luc tumor-bearing mice; assay type: in vivo, BALB/c nu/nu mice; conditions: female, BALB/c nu/nu, iv, total radioactivity
Method: (§1) All animal handling procedures were approved by the Kanazawa University Animal Care Committee. Experiments with animals were conducted in accordance with the Guidelines for the Care and Use of Laboratory Animals of Kanazawa University. The animals were housed with free access to food and water at 23 °C with a 12 h light/dark schedule. Four-week-old female BALB/c nu/nu mice (12–17 g) were purchased from Japan SLC Inc. (Hamamatsu, Japan). The tumor-bearing model was prepared by subcutaneous inoculation of 1 × 10^7 BxPC3-luc cells into left shoulder of female BALB/c nu/nu mice. The biodistribution experiment was performed approximately 4–5 weeks post-inoculation.
(§2) A saline solution of [^67Ga]27 or [^67Ga]28 (74 kBq, 100 µL) was injected intravenously into the tail vein of the mice. The mice were sacrificed at 10 min post-injection for [^67Ga]27 and 1 h post-injection for [^67Ga]27 or [^67Ga]28. For in vivo blocking studies, 100 μL of a mixed saline solution of [^67Ga]27 (74 kBq) and IPLPPPRRPFFK peptide (1 mg/mouse) was injected via tile vein into the tumor-bearing mice. The mice were sacrificed at 1 h post-injection. Tissues of interest were removed and weighed. The radioactivity of the tissues was determined using an auto well gamma counter, and counts were corrected for background radiation and physical decay during counting. The data were expressed as percent injected dose per gram tissue (%ID/g).

[6] = tested on: BxPC3-luc tumor-bearing mice; assay: Biodistribution in BxPC3-luc tumor-bearing mice; assay type: in vivo, BALB/c nu/nu mice
Method: as §1, §2

Structure (SMILES): CC[C@H](C)[C@H](NC(=O)COCCOCCNC(=O)CN1CCN(CC(=O)O)CCN(CC(=O)O)CCN(CC(=O)O)CC1)C(=O)N1CCC[C@H]1C(=O)N[C@@H](CC(C)C)C(=O)N1CCC[C@H]1C(=O)N1CCC[C@H]1C(=O)N1CCC[C@H]1C(=O)N[C@@H](CCCNC(=N)N)C(=O)N[C@@H](CCCNC(=N)N)C(=O)N1CCC[C@H]1C(=O)N[C@@H](Cc1ccccc1)C(=O)N[C@@H](Cc1ccccc1)C(=O)N[C@@H](CCCCN)C(=O)O [[^67Ga]27, [^67Ga]Ga-DOTA-EG2-IPLPPPRRPFFK, metal not drawn] ({DOTA-AEEA}-IPLPPPRRPFFK-OH)
- logP [1]: < -4
- In vitro stability in PBS pH 7.4, percentage of remained intact radiotracer ([2]; 3 h): 96.9 ± 0.5%
- In vitro stability in PBS pH 7.4, percentage of remained intact radiotracer ([2]; 24 h): 95.6 ± 0.4%
- In vitro stability in murine plasma, percentage of remained intact radiotracer ([3]; 1 h, 60 min): 75.9 ± 1.2%
- remaining at 10 min ([3]; mouse, plasma, In vitro stability in murine plasma, percentage of remained intact radiotracer, 10 min): 84.4 ± 2%
- remaining at 1 h ([3]; mouse, plasma, In vitro stability in murine plasma, percentage of remained intact radiotracer, 1 h): > 75%
- tissue uptake dose at 1 h [4]: 0.06 %ID
- tissue uptake at 1 h ([5]; blood, 1 h, blocking: co-injection of IPLPPPRRPFFK 1 mg/mouse, read-out: Biodistribution, Blood): 0.93 %ID/g
- tissue uptake at 1 h ([5]; bone, 1 h, blocking: co-injection of IPLPPPRRPFFK 1 mg/mouse, read-out: Biodistribution, Bone): 0.21 %ID/g
- tissue uptake at 1 h ([5]; brain, 1 h, blocking: co-injection of IPLPPPRRPFFK 1 mg/mouse, read-out: Biodistribution, Brain): 0.02 %ID/g
- tissue uptake at 1 h ([5]; heart, 1 h, blocking: co-injection of IPLPPPRRPFFK 1 mg/mouse, read-out: Biodistribution, Heart): 0.28 %ID/g
- tissue uptake at 1 h ([5]; 1 h, blocking: co-injection of IPLPPPRRPFFK 1 mg/mouse, BxPC3-luc tumor, read-out: Biodistribution, Tumor): 0.96 %ID/g
- tissue uptake at 1 h ([5]; kidney, 1 h, blocking: co-injection of IPLPPPRRPFFK 1 mg/mouse, read-out: Biodistribution, Kidney): 12.2 %ID/g
- tissue uptake at 1 h ([5]; large intestine, 1 h, blocking: co-injection of IPLPPPRRPFFK 1 mg/mouse, read-out: Biodistribution, Large intestine): 0.25 %ID/g
- tissue uptake at 1 h ([5]; liver, 1 h, blocking: co-injection of IPLPPPRRPFFK 1 mg/mouse, read-out: Biodistribution, Liver): 0.27 %ID/g
- tissue uptake at 1 h ([5]; lung, 1 h, blocking: co-injection of IPLPPPRRPFFK 1 mg/mouse, read-out: Biodistribution, Lung): 0.66 %ID/g
- tissue uptake at 10 min ([5]; mouse, blood, 74 kBq, 10 min post-injection, i.v., read-out: Biodistribution, Blood): 3.87 %ID/g
- tissue uptake at 1 h ([5]; mouse, blood, 74 kBq, 1 h post-injection, i.v., read-out: Biodistribution, Blood): 0.15 %ID/g
- tissue uptake at 10 min ([5]; mouse, bone, 74 kBq, 10 min post-injection, i.v., read-out: Biodistribution, Bone): 1.62 %ID/g
- tissue uptake at 1 h ([5]; mouse, bone, 74 kBq, 1 h post-injection, i.v., read-out: Biodistribution, Bone): 0.24 %ID/g
- tissue uptake at 10 min ([5]; mouse, brain, 74 kBq, 10 min post-injection, i.v., read-out: Biodistribution, Brain): 0.13 %ID/g
- tissue uptake at 1 h ([5]; mouse, brain, 74 kBq, 1 h post-injection, i.v., read-out: Biodistribution, Brain): 0.01 %ID/g
- tissue uptake at 10 min ([5]; mouse, heart, 74 kBq, 10 min post-injection, i.v., read-out: Biodistribution, Heart): 1.47 %ID/g
- tissue uptake at 1 h ([5]; mouse, heart, 74 kBq, 1 h post-injection, i.v., read-out: Biodistribution, Heart): 0.07 %ID/g
- tissue uptake at 10 min ([5]; mouse, 74 kBq, 10 min post-injection, i.v., BxPC3-luc tumor, read-out: Biodistribution, Tumor): 3.11 %ID/g
- tissue uptake at 1 h ([5]; mouse, 74 kBq, 1 h post-injection, i.v., BxPC3-luc tumor, read-out: Biodistribution, Tumor): 0.39 %ID/g
- tissue uptake at 10 min ([5]; mouse, kidney, 74 kBq, 10 min post-injection, i.v., read-out: Biodistribution, Kidney): 13.9 %ID/g
- tissue uptake at 1 h ([5]; mouse, kidney, 74 kBq, 1 h post-injection, i.v., read-out: Biodistribution, Kidney): 3.07 %ID/g
- tissue uptake at 10 min ([5]; mouse, large intestine, 74 kBq, 10 min post-injection, i.v., read-out: Biodistribution, Large intestine): 0.87 %ID/g
- tissue uptake at 1 h ([5]; mouse, large intestine, 74 kBq, 1 h post-injection, i.v., read-out: Biodistribution, Large intestine): 0.13 %ID/g
- tissue uptake at 10 min ([5]; mouse, liver, 74 kBq, 10 min post-injection, i.v., read-out: Biodistribution, Liver): 0.9 %ID/g
- tissue uptake at 1 h ([5]; mouse, liver, 74 kBq, 1 h post-injection, i.v., read-out: Biodistribution, Liver): 0.22 %ID/g
- tissue uptake at 10 min ([5]; mouse, lung, 74 kBq, 10 min post-injection, i.v., read-out: Biodistribution, Lung): 3.7 %ID/g
- tissue uptake at 1 h ([5]; mouse, lung, 74 kBq, 1 h post-injection, i.v., read-out: Biodistribution, Lung): 0.46 %ID/g
- tissue uptake at 10 min ([5]; mouse, muscle, 74 kBq, 10 min post-injection, i.v., read-out: Biodistribution, Muscle): 0.86 %ID/g
- tissue uptake at 1 h ([5]; mouse, muscle, 74 kBq, 1 h post-injection, i.v., read-out: Biodistribution, Muscle): 0.07 %ID/g
- tissue uptake at 10 min ([5]; mouse, pancreas, 74 kBq, 10 min post-injection, i.v., read-out: Biodistribution, Pancreas): 0.89 %ID/g
- tissue uptake at 1 h ([5]; mouse, pancreas, 74 kBq, 1 h post-injection, i.v., read-out: Biodistribution, Pancreas): 0.13 %ID/g
- tissue uptake at 10 min ([5]; mouse, small intestine, 74 kBq, 10 min post-injection, i.v., read-out: Biodistribution, Small intestine): 1.16 %ID/g
- tissue uptake at 1 h ([5]; mouse, small intestine, 74 kBq, 1 h post-injection, i.v., read-out: Biodistribution, Small intestine): 0.63 %ID/g
- tissue uptake at 10 min ([5]; mouse, spleen, 74 kBq, 10 min post-injection, i.v., read-out: Biodistribution, Spleen): 0.99 %ID/g
- tissue uptake at 1 h ([5]; mouse, spleen, 74 kBq, 1 h post-injection, i.v., read-out: Biodistribution, Spleen): 0.13 %ID/g
- tissue uptake dose at 10 min ([5]; mouse, stomach, 74 kBq, 10 min post-injection): 0.19 %ID
- tissue to tissue ratio at 10 min ([5]; mouse, tumor/blood, 74 kBq, 10 min post-injection): 0.81
- tissue to tissue ratio at 1 h ([5]; mouse, tumor/blood, 74 kBq, 1 h post-injection): 2.61
- tissue uptake at 1 h ([5]; muscle, 1 h, blocking: co-injection of IPLPPPRRPFFK 1 mg/mouse, read-out: Biodistribution, Muscle): 0.22 %ID/g
- tissue uptake at 1 h ([5]; pancreas, 1 h, blocking: co-injection of IPLPPPRRPFFK 1 mg/mouse, read-out: Biodistribution, Pancreas): 0.21 %ID/g
- tissue uptake at 1 h ([5]; small intestine, 1 h, blocking: co-injection of IPLPPPRRPFFK 1 mg/mouse, read-out: Biodistribution, Small intestine): 0.66 %ID/g
- tissue uptake at 1 h ([5]; spleen, 1 h, blocking: co-injection of IPLPPPRRPFFK 1 mg/mouse, read-out: Biodistribution, Spleen): 0.29 %ID/g
- tissue uptake dose at 1 h ([5]; stomach, 1 h, blocking: co-injection of IPLPPPRRPFFK 1 mg/mouse): 0.05 %ID
- tissue to tissue ratio at 1 h ([5]; tumor/blood, 1 h, blocking: co-injection of IPLPPPRRPFFK 1 mg/mouse): 1.19
- Tumor/Blood ratio ([6]; 1 h, blocking: co-injection of IPLPPPRRPFFK 1 mg/mouse): significantly decreased
- Tumor/Blood ratio ([6]; 1 h post-injection, i.v.): 2.61 and 2.61 ± 0.75
